Legend:
[1] = target: T1, BRD9 (Homo sapiens, UniProt Q9H8M2); test: Bromodomain assay % Ctrl determination BRD9; conditions: lower numbers indicate a stronger binding
T1 construct: T7 phage strains displaying bromodomains were grown; host or cells: T7 phage in E. coli derived from BL21
T1 sequence (Q9H8M2 136-240 limits assumed): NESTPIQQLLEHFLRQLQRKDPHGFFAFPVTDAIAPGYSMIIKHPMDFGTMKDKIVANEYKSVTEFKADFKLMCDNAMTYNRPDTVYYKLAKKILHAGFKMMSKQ
Procedure: (§1) Compounds that bind the bromodomain prevent its binding to the immobilized ligand thus reducing the amount of protein captured. […] Hits are identified by measuring the amount of bromodomain captured in test versus control samples. Bromodomain assays for % Ctrl determination: T7 phage strains displaying bromodomains were grown in parallel in 24-well blocks in an E. coli host derived from the BL21 strain. E. coli were grown to log-phase and infected with T7 phage from a frozen stock (multiplicity of infection=0.4) and incubated with shaking at 32° C. until lysis (90-150 minutes). The lysates were centrifuged (5,000×g) and filtered (0.2 μm) to remove cell debris. […] The liganded beads were blocked with excess biotin and washed with blocking buffer (SeaBlock (Pierce), 1% BSA, 0.05% Tween 20, 1 mM DTT) to remove unbound ligand and to reduce non-specific phage binding. […] Test compounds were prepared as 1000× stocks in 100% DMSO and subsequently diluted 1:25 in monoethylene glycol (MEG). The compounds were then diluted directly into the assays such that the final concentrations of DMSO and MEG were 0.1% and 2.4%, respectively. All reactions were performed in polypropylene 384-well plates in a final volume of 0.02 ml. […] The bromodomain concentration in the eluates was measured by qPCR. […]

[2] = target: T2, TRIM24(PHD, Bromo) (Homo sapiens, UniProt O15164); test: Bromodomain assay % Ctrl determination TRIM24(PHD, Bromo); conditions: lower numbers indicate a stronger binding
T2 construct: T7 phage strains displaying bromodomains were grown in parallel; host or cells: T7 phage grown in E. coli host derived from BL21
T2 sequence (O15164 824-1006 limits assumed): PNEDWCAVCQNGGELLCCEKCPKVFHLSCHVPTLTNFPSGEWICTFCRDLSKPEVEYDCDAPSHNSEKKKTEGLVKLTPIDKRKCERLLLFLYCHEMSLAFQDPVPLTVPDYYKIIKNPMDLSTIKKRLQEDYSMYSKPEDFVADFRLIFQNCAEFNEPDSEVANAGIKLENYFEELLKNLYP
Procedure: as §1

[3] = target: T3, CECR2 (Homo sapiens, UniProt Q9BXF3); test: Bromodomain assay % Ctrl determination CECR2; conditions: lower numbers indicate a stronger binding
T3 construct: T7 phage strains displaying bromodomains were grown; host or cells: T7 phage in E. coli derived from BL21
T3 sequence (Q9BXF3 434-538 limits assumed): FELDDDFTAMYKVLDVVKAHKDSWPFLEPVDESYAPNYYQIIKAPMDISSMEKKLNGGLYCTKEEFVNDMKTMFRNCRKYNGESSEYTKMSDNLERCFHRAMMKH
Procedure: as §1

[4] = target: T4, BRD3(1) (Homo sapiens, UniProt Q15059); test: Bromodomain assay % Ctrl determination BRD3(1); conditions: lower numbers indicate a stronger binding
T4 construct: T7 phage strains displaying bromodomains were grown in parallel; made in house; host or cells: T7 phage grown in an E. coli host derived from the BL21 strain
T4 sequence (Q15059 34-140 limits assumed): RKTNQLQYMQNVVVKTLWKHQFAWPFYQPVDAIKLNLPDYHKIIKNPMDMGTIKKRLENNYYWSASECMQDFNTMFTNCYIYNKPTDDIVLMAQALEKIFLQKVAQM
Procedure: as §1

[5] = target: T5, BRDT(2) (Homo sapiens, UniProt Q58F21); test: Bromodomain assay % Ctrl determination BRDT(2); conditions: lower numbers indicate a stronger binding
T5 construct: T7 phage strains displaying bromodomains were grown; host or cells: T7 phage in E. coli derived from BL21
Procedure: as §1

[6] = target: T6, BRD7 (Homo sapiens, UniProt Q9NPI1); test: Bromodomain assay % Ctrl determination BRD7; conditions: lower numbers indicate a stronger binding
T6 construct: T7 phage strains displaying bromodomains were grown; host or cells: T7 phage in E. coli derived from BL21
T6 sequence (Q9NPI1 131-235 limits assumed): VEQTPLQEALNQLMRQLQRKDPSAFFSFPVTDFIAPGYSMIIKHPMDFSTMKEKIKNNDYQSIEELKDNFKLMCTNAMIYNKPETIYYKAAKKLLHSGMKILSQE
Procedure: as §1

[7] = target: T7, TAF1(2) (Homo sapiens, UniProt P21675); test: Bromodomain assay % Ctrl determination TAF1(2); conditions: lower numbers indicate a stronger binding
T7 construct: FALZ, PBRM1-BD2, BPRM1-BDS, TAF1-BD2, TAF1L-BD2; host or cells: T7 phage grown in E. coli host derived from BL21
T7 sequence (P21675 1519-1628 limits assumed): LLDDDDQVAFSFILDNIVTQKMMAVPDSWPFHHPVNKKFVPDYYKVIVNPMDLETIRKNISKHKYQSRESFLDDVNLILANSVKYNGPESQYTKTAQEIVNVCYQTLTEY
Procedure: as §1

[8] = target: T8, BRD2(2) (Homo sapiens, UniProt P25440); test: Bromodomain assay % Ctrl determination BRD2(2); conditions: lower numbers indicate a stronger binding
T8 construct: T7 phage strains displaying bromodomains were grown in parallel; made in house; host or cells: T7 phage grown in an E. coli host derived from the BL21 strain
T8 sequence (P25440 344-453 limits assumed): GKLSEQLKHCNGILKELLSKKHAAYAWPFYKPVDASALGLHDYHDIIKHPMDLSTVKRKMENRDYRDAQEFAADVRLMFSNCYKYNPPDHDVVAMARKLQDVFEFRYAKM
Procedure: as §1

[9] = target: T9, WDR9(2) (Homo sapiens, UniProt Q9NSI6); test: Bromodomain assay % Ctrl determination WDR9(2); conditions: lower numbers indicate a stronger binding
T9 construct: T7 phage strains displaying bromodomains were grown in parallel; host or cells: T7 phage grown in E. coli host derived from BL21
T9 sequence (Q9NSI6 1313-1418 limits assumed): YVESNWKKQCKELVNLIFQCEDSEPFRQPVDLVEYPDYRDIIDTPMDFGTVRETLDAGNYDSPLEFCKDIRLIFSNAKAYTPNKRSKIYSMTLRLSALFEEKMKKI
Procedure: as §1

[10] = target: T10, ATAD2A (Homo sapiens, UniProt Q6PL18); test: Bromodomain assay % Ctrl determination ATAD2A; conditions: lower numbers indicate a stronger binding
T10 construct: T7 phage strains displaying bromodomains were grown in parallel; made in house; host or cells: T7 phage grown in an E. coli host derived from the BL21 strain
T10 sequence (Q6PL18 980-1092 limits assumed): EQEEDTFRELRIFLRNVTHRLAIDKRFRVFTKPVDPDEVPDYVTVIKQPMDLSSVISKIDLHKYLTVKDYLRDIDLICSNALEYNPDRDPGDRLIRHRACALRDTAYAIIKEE
Procedure: as §1

[11] = target: T11, BRPF3 (Homo sapiens, UniProt Q9ULD4); test: BROMOscan Kd determination BRPF3; type: binding
T11 construct: T7 phage strains displaying bromodomains were grown; host or cells: T7 phage in E. coli derived from BL21
T11 sequence (Q9ULD4 589-693 limits assumed): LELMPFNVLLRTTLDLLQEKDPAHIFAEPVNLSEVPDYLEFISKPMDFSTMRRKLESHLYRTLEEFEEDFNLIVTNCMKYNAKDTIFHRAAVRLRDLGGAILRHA
Procedure: (§2) Bromodomain profiling was carried out on the basis of BROMOscan™. This platform accounted for the indirect determination of the dissociation constants between 19 bromodomains and the compound of formula (13), by binding competition against a reference immobilized ligand. Compounds that bind the bromodomain prevent its binding to the immobilized ligand thus reducing the amount of protein captured. […] Hits are identified by measuring the amount of bromodomain captured in test versus control samples. Bromodomain assays for Kd determination: T7 phage strains displaying bromodomains were grown in parallel in 24-well blocks in an E. coli host derived from the BL21 strain. E. coli were grown to log-phase and infected with T7 phage from a frozen stock (multiplicity of infection=0.4) and incubated with shaking at 32° C. until lysis (90-150 minutes). The lysates were centrifuged (5,000×g) and filtered (0.2 μm) to remove cell debris. […] Kds were determined using an 11-point 3-fold compound dilution series with one DMSO control point. […] The bromodomain concentration in the eluates was measured by qPCR. […] Most Kds were determined using a compound top concentration=10,000 nM. […] Binding Constants (Kds): Binding constants (Kds) were calculated with a standard dose-response curve using the Hill equation: The Hill Slope was set to −1. […]

[12] = target: T12, PBRM1(2) (Homo sapiens, UniProt Q86U86); test: BROMOscan Kd determination PBRM1(2); type: binding
T12 construct: FALZ, PBRM1-BD2, BPRM1-BDS, TAF1-BD2, TAF1L-BD2; host or cells: T7 phage grown in E. coli host derived from BL21
T12 sequence (Q86U86 177-287 limits assumed): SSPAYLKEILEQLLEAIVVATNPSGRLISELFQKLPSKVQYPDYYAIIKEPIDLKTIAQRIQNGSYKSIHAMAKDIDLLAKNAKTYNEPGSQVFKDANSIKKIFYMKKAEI
Procedure: as §2

[13] = target: T13, TAF1L(2) (Homo sapiens, UniProt Q8IZX4); test: BROMOscan Kd determination TAF1L(2); type: binding
T13 construct: FALZ, PBRM1-BD2, BPRM1-BDS, TAF1-BD2, TAF1L-BD2; host or cells: T7 phage grown in E. coli host derived from BL21
T13 sequence (Q8IZX4 1517-1626 limits assumed): as the sequence (P21675 1519-1628 limits assumed) above, with V46M, M51V, V102I, L107I counted along it
Procedure: as §2

[14] = target: T14, PCAF (Homo sapiens, UniProt Q92831); test: BROMOscan Kd determination PCAF; type: binding
T14 construct: T7 phage strains displaying bromodomains were grown in parallel; host or cells: T7 phage grown in E. coli host derived from BL21
T14 sequence (Q92831 723-827 limits assumed): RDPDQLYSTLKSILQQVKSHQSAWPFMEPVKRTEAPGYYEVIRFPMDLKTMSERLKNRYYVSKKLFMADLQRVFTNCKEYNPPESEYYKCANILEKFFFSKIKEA
Procedure: as §2

[15] = target: T15, WRD9(2) (Homo sapiens, UniProt Q9NSI6); test: BROMOscan Kd determination WRD9(2); type: binding
T15 construct: T7 phage strains displaying bromodomains were grown in parallel; host or cells: T7 phage grown in E. coli host derived from BL21
T15 sequence (Q9NSI6 1313-1418 limits assumed): as the sequence (Q9NSI6 1313-1418 limits assumed) above
Procedure: as §2

[16] = target: T10, ATAD2A; test: BROMOscan Kd determination ATAD2A; type: binding
Procedure: as §2

SMILES	% Ctrl @ 10 000 nM BRD9 [1]	% Ctrl @ 10 000 nM TRIM24(PHD, Bromo) [2]	% Ctrl @ 10 000 nM CECR2 [3]	% Ctrl @ 10 000 nM BRD3(1) [4]	% Ctrl @ 10 000 nM BRDT(2) [5]	% Ctrl @ 10 000 nM BRD7 [6]	% Ctrl @ 10 000 nM TAF1(2) [7]	% Ctrl @ 10 000 nM BRD2(2) [8]	% Ctrl @ 10 000 nM WDR9(2) [9]	% Ctrl @ 10 000 nM ATAD2A [10]	Kd [11]	Kd [12]	Kd [13]	Kd [14]	Kd [15]	Kd [16]
COc1ccc(S(=O)(=O)N2CCOCC2)cc1NC(=O)c1[nH]c(C)c2c1CCCCC2=O [Compound 13, N-(2-methoxy-5-(morpholinosulfonyl)phenyl)-3-methyl-4-oxo-2,4,5,6,7,8-hexahydrocyclohepta[c]pyrrole-1-carboxamide]	0 % Ctrl	82 % Ctrl	1.3 % Ctrl	0.05 % Ctrl	0.65 % Ctrl	0 % Ctrl	7.4 % Ctrl	0.1 % Ctrl	81 % Ctrl	94 % Ctrl	–	–	–	–	–	–
Cc1[nH]c(-c2cc(N)ccc2Cl)c2c1C(=O)CCCC2 [Compound 23]	–	–	–	–	–	–	–	–	–	–	6 µM	4.2 µM	6.8 µM	> 10 µM	> 10 µM	> 10 µM

From patent publication US20220055989A1, “CONDENSED PYRROLES AS NOVEL BROMODOMAIN INHIBITORS” (ALBERT LUDWING UNIVERSITÄT FREIBURG, priority 2018, published 2022)
